ChEMBL document CHEMBL1201862, “PubChem BioAssay data set” (2004)
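96-well plates; 48 h exposure; 5 concentrations. Endpoints by linear interpolation between flanking doses. Not reached: highest tested concentration assigned. The concentration for 50% growth inhibition is given as GI50.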 Calls of active or inactive are those of the source. No stated cut-off is given here; in the data, active = GI50 up to about 1.1 µM and inactive = higher.

Columns and labels:
Test in all cases: growth of human tumour cells (NCI), 48 h
[1] = test system: SNB-19
[2] = test system: ACHN
[3] = test system: SN12C
[4] = test system: UACC-257
[5] = test system: NCI/ADR-RES
[6] = test system: 786-0
[7] = test system: UACC-62
[8] = test system: HL-60
[9] = test system: RXF 393
[10] = test system: COLO 205
[11] = test system: OVCAR-4
[12] = test system: RPMI-8226
[13] = test system: NCI-H226
[14] = test system: PC-3
[15] = test system: EKVX
[16] = test system: U-251
[17] = test system: SK-OV-3
[18] = test system: OVCAR-5
[19] = test system: M14
[20] = test system: SF-295
[21] = test system: SW-620
[22] = test system: MOLT-4
[23] = test system: SNB-75
[24] = test system: SF-268
[25] = test system: NCI-H522
[26] = test system: TK-10
[27] = test system: BT-549
[28] = test system: NCI-H460
[29] = test system: OVCAR-8
[30] = test system: CCRF-CEM
[31] = test system: UO-31
[32] = test system: Malme-3M
[33] = test system: HT-29
[34] = test system: SF-539
[35] = test system: HCT-15
[36] = test system: A549
[37] = test system: IGROV-1
[38] = test system: MDA-N
[39] = test system: HCT-116
[40] = test system: NCI-H23
[41] = test system: HCC 2998
[42] = test system: CAKI-1
[43] = test system: SK-MEL-2
[44] = test system: SK-MEL-5
[45] = test system: DU-145
[46] = test system: OVCAR-3
[47] = test system: KM12
[48] = test system: HOP-92
[49] = test system: MCF7
[50] = test system: SR
[51] = test system: K562
[52] = test system: SK-MEL-28
[53] = test system: A498
[54] = test system: MDA-MB-435
[55] = test system: HOP-62
[56] = test system: LOX IMVI
[57] = test system: Hs-578T
[58] = test system: MDA-MB-231

SMILES: Cc1cccc2c1nc1n2C(=O)c2ccccc2-1
- GI50 [1]: > 100 µM (inactive)
- GI50 [2]: > 100 µM (inactive)
- GI50 [3]: > 100 µM (inactive)
- GI50 [4]: > 100 µM (inactive)
- GI50 [5]: > 100 µM (inactive)
- GI50 [6]: > 100 µM (inactive)
- GI50 [7]: > 100 µM (inactive)
- GI50 [8]: > 100 µM (inactive)
- GI50 [9]: > 100 µM (inactive)
- GI50 [10]: > 100 µM (inactive)
- GI50 [11]: > 100 µM (inactive)
- GI50 [12]: > 100 µM (inactive)
- GI50 [13]: > 100 µM (inactive)
- GI50 [14]: > 100 µM (inactive)
- GI50 [15]: > 100 µM (inactive)
- GI50 [16]: > 100 µM (inactive)
- GI50 [17]: > 100 µM (inactive)
- GI50 [18]: > 100 µM (inactive)
- GI50 [19]: > 100 µM (inactive)
- GI50 [20]: > 100 µM (inactive)
- GI50 [21]: > 100 µM (inactive)
- GI50 [22]: > 100 µM (inactive)
- GI50 [23]: > 100 µM (inactive)
- GI50 [24]: > 100 µM (inactive)
- GI50 [25]: > 100 µM (inactive)
- GI50 [26]: > 100 µM (inactive)
- GI50 [27]: > 100 µM (inactive)
- GI50 [28]: > 100 µM (inactive)
- GI50 [29]: > 100 µM (inactive)
- GI50 [30]: > 100 µM (inactive)
- GI50 [31]: > 100 µM (inactive)
- GI50 [32]: > 100 µM (inactive)
- GI50 [33]: > 100 µM (inactive)
- GI50 [34]: > 100 µM (inactive)
- GI50 [35]: > 100 µM
- GI50 [36]: > 100 µM (inactive)
- GI50 [37]: > 100 µM (inactive)
- GI50 [38]: > 100 µM (inactive)
- GI50 [39]: > 100 µM (inactive)
- GI50 [40]: > 100 µM (inactive)
- GI50 [41]: > 100 µM (inactive)
- GI50 [42]: > 100 µM (inactive)
- GI50 [43]: > 100 µM (inactive)
- GI50 [44]: > 100 µM (inactive)
- GI50 [45]: > 100 µM (inactive)
- GI50 [46]: > 100 µM (inactive)
- GI50 [47]: > 100 µM (inactive)
- GI50 [48]: > 100 µM (inactive)
- GI50 [49]: > 100 µM (inactive)
- GI50 [50]: > 100 µM (inactive)
- GI50 [51]: > 100 µM (inactive)
- GI50 [52]: > 100 µM (inactive)

SMILES: Cc1cc(C)n2nc3nc(N)c(C#N)c(-c4ccccc4)c3c2n1
- GI50 [1]: > 100 µM (inactive)
- GI50 [2]: > 100 µM (inactive)
- GI50 [3]: > 100 µM (inactive)
- GI50 [4]: > 100 µM (inactive)
- GI50 [5]: > 100 µM (inactive)
- GI50 [6]: > 100 µM (inactive)
- GI50 [7]: > 100 µM (inactive)
- GI50 [8]: > 100 µM (inactive)
- GI50 [9]: > 100 µM (inactive)
- GI50 [10]: > 100 µM (inactive)
- GI50 [11]: > 100 µM (inactive)
- GI50 [12]: > 100 µM (inactive)
- GI50 [13]: > 78.5 µM (inactive)
- GI50 [14]: > 100 µM (inactive)
- GI50 [15]: > 100 µM (inactive)
- GI50 [16]: > 100 µM (inactive)
- GI50 [17]: > 100 µM (inactive)
- GI50 [18]: > 100 µM (inactive)
- GI50 [19]: > 100 µM (inactive)
- GI50 [53]: > 100 µM (inactive)
- GI50 [20]: > 100 µM (inactive)
- GI50 [21]: > 100 µM (inactive)
- GI50 [54]: > 100 µM (inactive)
- GI50 [22]: > 100 µM (inactive)
- GI50 [55]: > 100 µM (inactive)
- GI50 [24]: > 100 µM (inactive)
- GI50 [25]: > 100 µM (inactive)
- GI50 [26]: > 100 µM (inactive)
- GI50 [27]: > 100 µM (inactive)
- GI50 [28]: > 100 µM (inactive)
- GI50 [29]: > 100 µM (inactive)
- GI50 [30]: > 100 µM (inactive)
- GI50 [31]: > 100 µM (inactive)
- GI50 [32]: > 100 µM (inactive)
- GI50 [33]: > 100 µM (inactive)
- GI50 [56]: > 100 µM (inactive)
- GI50 [34]: > 100 µM (inactive)
- GI50 [35]: > 100 µM
- GI50 [57]: > 100 µM (inactive)
- GI50 [36]: > 100 µM (inactive)
- GI50 [37]: > 100 µM (inactive)
- GI50 [38]: > 100 µM (inactive)
- GI50 [39]: > 100 µM (inactive)
- GI50 [40]: > 100 µM (inactive)
- GI50 [41]: > 100 µM (inactive)
- GI50 [42]: > 100 µM (inactive)
- GI50 [43]: > 100 µM (inactive)
- GI50 [44]: > 80.2 µM (inactive)
- GI50 [45]: > 100 µM (inactive)
- GI50 [46]: > 73.6 µM (inactive)
- GI50 [47]: > 100 µM (inactive)
- GI50 [48]: > 100 µM (inactive)
- GI50 [49]: > 100 µM (inactive)
- GI50 [50]: > 100 µM (inactive)
- GI50 [51]: > 100 µM (inactive)
- GI50 [52]: > 100 µM (inactive)
- GI50 [58]: > 100 µM (inactive)

SMILES: C=CCn1c(-c2ccc([N+](=O)[O-])cc2)cs/c1=N\C(P(=O)(O)O)P(=O)(O)O
- GI50 [1]: > 100 µM (inactive)
- GI50 [2]: > 100 µM (inactive)
- GI50 [4]: > 100 µM (inactive)
- GI50 [5]: > 100 µM (inactive)
- GI50 [6]: > 100 µM (inactive)
- GI50 [7]: > 100 µM (inactive)
- GI50 [8]: 0.0383 µM (active)
- GI50 [9]: > 100 µM (inactive)
- GI50 [10]: > 100 µM (inactive)
- GI50 [12]: > 100 µM (inactive)
- GI50 [13]: > 100 µM (inactive)
- GI50 [14]: > 100 µM (inactive)
- GI50 [15]: > 100 µM (inactive)
- GI50 [16]: > 100 µM (inactive)
- GI50 [17]: > 100 µM (inactive)
- GI50 [18]: > 100 µM (inactive)
- GI50 [19]: > 100 µM (inactive)
- GI50 [53]: > 100 µM (inactive)
- GI50 [20]: > 100 µM (inactive)
- GI50 [21]: > 100 µM (inactive)
- GI50 [54]: > 100 µM (inactive)
- GI50 [22]: > 100 µM (inactive)
- GI50 [23]: > 100 µM (inactive)
- GI50 [55]: > 100 µM (inactive)
- GI50 [24]: > 100 µM (inactive)
- GI50 [25]: > 100 µM (inactive)
- GI50 [26]: > 100 µM (inactive)
- GI50 [27]: > 100 µM (inactive)
- GI50 [28]: > 100 µM (inactive)
- GI50 [29]: > 100 µM (inactive)
- GI50 [30]: > 100 µM (inactive)
- GI50 [31]: > 100 µM (inactive)
- GI50 [32]: > 100 µM (inactive)
- GI50 [33]: > 100 µM (inactive)
- GI50 [56]: > 100 µM (inactive)
- GI50 [34]: > 100 µM (inactive)
- GI50 [35]: > 100 µM
- GI50 [57]: > 100 µM (inactive)
- GI50 [36]: > 100 µM (inactive)
- GI50 [37]: > 100 µM (inactive)
- GI50 [38]: > 100 µM (inactive)
- GI50 [39]: > 100 µM (inactive)
- GI50 [40]: > 100 µM (inactive)
- GI50 [41]: > 100 µM (inactive)
- GI50 [42]: > 100 µM (inactive)
- GI50 [44]: > 100 µM (inactive)
- GI50 [45]: > 100 µM (inactive)
- GI50 [46]: > 100 µM (inactive)
- GI50 [47]: > 100 µM (inactive)
- GI50 [48]: > 100 µM (inactive)
- GI50 [49]: > 100 µM (inactive)
- GI50 [50]: > 100 µM (inactive)
- GI50 [51]: > 100 µM (inactive)
- GI50 [52]: > 100 µM (inactive)
- GI50 [58]: > 100 µM (inactive)

SMILES: COC(=O)Cc1c(C2C(CC(=O)OC)c3ccccc3N2C2OC(CO)C(O)C(O)C2O)[nH]c2ccccc12 (stereo not given)
- GI50 [1]: > 100 µM (inactive)
- GI50 [3]: > 100 µM (inactive)
- GI50 [4]: > 100 µM (inactive)
- GI50 [7]: > 100 µM (inactive)
- GI50 [10]: > 100 µM (inactive)
- GI50 [11]: > 100 µM (inactive)
- GI50 [12]: > 100 µM (inactive)
- GI50 [14]: > 100 µM (inactive)
- GI50 [15]: > 100 µM (inactive)
- GI50 [16]: > 100 µM (inactive)
- GI50 [17]: > 100 µM (inactive)
- GI50 [18]: > 100 µM (inactive)
- GI50 [19]: > 100 µM (inactive)
- GI50 [53]: > 100 µM (inactive)
- GI50 [20]: > 100 µM (inactive)
- GI50 [21]: > 100 µM (inactive)
- GI50 [54]: > 100 µM (inactive)
- GI50 [22]: > 100 µM (inactive)
- GI50 [23]: > 100 µM (inactive)
- GI50 [55]: > 100 µM (inactive)
- GI50 [24]: > 100 µM (inactive)
- GI50 [25]: > 100 µM (inactive)
- GI50 [26]: > 100 µM (inactive)
- GI50 [27]: > 100 µM (inactive)
- GI50 [28]: > 100 µM (inactive)
- GI50 [30]: > 100 µM (inactive)
- GI50 [31]: > 100 µM (inactive)
- GI50 [32]: > 100 µM (inactive)
- GI50 [33]: > 100 µM (inactive)
- GI50 [35]: > 100 µM
- GI50 [36]: > 100 µM (inactive)
- GI50 [37]: > 100 µM (inactive)
- GI50 [38]: > 100 µM (inactive)
- GI50 [39]: > 100 µM (inactive)
- GI50 [40]: > 100 µM (inactive)
- GI50 [41]: > 100 µM (inactive)
- GI50 [42]: > 100 µM (inactive)
- GI50 [43]: > 100 µM (inactive)
- GI50 [44]: > 100 µM (inactive)
- GI50 [45]: > 100 µM (inactive)
- GI50 [46]: > 100 µM (inactive)
- GI50 [47]: > 100 µM (inactive)
- GI50 [48]: > 100 µM (inactive)
- GI50 [50]: > 100 µM (inactive)
- GI50 [52]: > 100 µM (inactive)
- GI50 [58]: > 100 µM (inactive)
